In patent US20230085307A1, “PYRIDAZINONE COMPOUND AND HERBICIDE” (NISSAN CHEMICAL CORPORATION, priority 2019, published 2023):

How the values were obtained:
[1] = system: late watergrass; test: Test Example 1: herbicidal activity, application before weed generation under submerged conditions (Table 16, symbol A); format: in vivo, late watergrass (Echinochloa oryzicola); conditions: amount of applied herbicide 320 g/ha
Procedure, shortened: (§1)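 Submerged Wagner pots (alluvial soil, 4 cm water) sown with weed seeds and planted with 2.5-leaf rice seedlings; emulsifiable concentrate diluted in water applied to water surface on sowing day. Held in greenhouse at 25-30 °C; injury scored 0-5 by herbicidal rate after three weeks.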

[2] = system: Japanese bulrush; test: Test Example 1: herbicidal activity, application before weed generation under submerged conditions (Table 16, symbol B); format: in vivo, Japanese bulrush (Schoenoplectus juncoides); conditions: amount of applied herbicide 320 g/ha
Procedure, shortened: as §1

[3] = system: late watergrass; test: Test Example 2: herbicidal activity, application during weed generation under submerged conditions (Table 17, symbol A); format: in vivo, late watergrass (Echinochloa oryzicola); conditions: for herbicidal effect rating, A: late watergrass: AAH 320 g/ha, application during weed generation, submerged conditions
Procedure, shortened: (§2)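 Effect on each weed is rated three weeks post-treatment, using the same scoring criteria as the preceding test. Plants grow from mixed-sown seed in flooded alluvial soil (4 cm water) at 25° C. to 30° C., and are treated at one to two leaves with diluted emulsion dropped onto the water.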

[4] = system: Japanese bulrush; test: Test Example 2: herbicidal activity, application during weed generation under submerged conditions (Table 17, symbol B); format: in vivo, Japanese bulrush (Schoenoplectus juncoides); conditions: for herbicidal effect rating, B: Japanese bulrush: AAH 320 g/ha, application during weed generation, submerged conditions
Procedure, shortened: as §2

[5] = system: barnyard grass; test: Test Example 3: herbicidal effect by foliage application, Wagner pot (Table 18, symbol H); format: in vivo, barnyard grass (Echinochloa crus-galli); conditions: for herbicidal effect on barnyard grass (H): 320 g/ha
Procedure, shortened: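 Plants were sown in alluvial soil held under 0.1–0.5 cm standing water and grown 14 days in a greenhouse at 25–30 °C. An emulsifiable formulation, water-diluted to the set dose, was then sprayed onto the foliage, and effects were scored three weeks later using previously defined criteria.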

[6] = system: green foxtail; test: Test Example 4: herbicidal effect by soil treatment (Table 19, symbol G); format: in vivo, green foxtail (Setaria viridis); conditions: amount of applied herbicide 320 g/ha
Procedure, shortened: (§3)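 Soil-surface application: an emulsion agent diluted with water to the predetermined dose is sprayed uniformly over seeds lying under roughly 1.5 cm of sterilized diluvial soil. Boxes stay in a greenhouse at 25° C. to 30° C. Three weeks later, each species is graded on previously defined criteria.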

[7] = system: barnyard grass; test: Test Example 4: herbicidal effect by soil treatment (Table 19, symbol H); format: in vivo, barnyard grass (Echinochloa crus-galli); conditions: amount of applied herbicide 320 g/ha
Procedure, shortened: as §3

[8] = system: wild oat; test: Test Example 4: herbicidal effect by soil treatment (Table 19, symbol I); format: in vivo, wild oat (Avena fatua); conditions: amount of applied herbicide 320 g/ha
Procedure, shortened: as §3

[9] = system: blackgrass; test: Test Example 4: herbicidal effect by soil treatment (Table 19, symbol J); format: in vivo, blackgrass (Alopecurus myosuroides); conditions: amount of applied herbicide 320 g/ha
Procedure, shortened: as §3

[10] = system: Italian ryegrass; test: Test Example 4: herbicidal effect by soil treatment (Table 19, symbol K); format: in vivo, Italian ryegrass (Lolium multiflorum); conditions: amount of applied herbicide 320 g/ha
Procedure, shortened: as §3

[11] = system: chickweed; test: Test Example 4: herbicidal effect by soil treatment (Table 19, symbol P); format: in vivo, common chickweed (Stellaria media); conditions: amount of applied herbicide 320 g/ha
Procedure, shortened: as §3

[12] = system: persian speedwell; test: Test Example 4: herbicidal effect by soil treatment (Table 19, symbol R); format: in vivo, Persian speedwell (Veronica persica); conditions: amount of applied herbicide 320 g/ha
Procedure, shortened: as §3

[13] = system: wild oat; test: Test Example 5: herbicidal effect by foliage application, plastic box (Table 20, symbol I); format: in vivo, wild oat (Avena fatua); conditions: 320 g/ha; for I: wild oat, herbicidal effect grade: three weeks after application
Procedure, shortened: (§4)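 Sow seeds spot-wise in sterilized diluvial soil; cover with ~1.5 cm soil. Grow 14 days in greenhouse, 25° C. to 30° C. Spray foliage with emulsion diluted to predetermined amount. Rate effect after 3 weeks.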

[14] = system: blackgrass; test: Test Example 5: herbicidal effect by foliage application, plastic box (Table 20, symbol J); format: in vivo, blackgrass (Alopecurus myosuroides); conditions: 320 g/ha; for J: blackgrass, herbicidal effect grade: three weeks after application
Procedure, shortened: as §4

[15] = system: Italian ryegrass; test: Test Example 5: herbicidal effect by foliage application, plastic box (Table 20, symbol K); format: in vivo, Italian ryegrass (Lolium multiflorum); conditions: 320 g/ha; for K: Italian ryegrass, herbicidal effect grade: three weeks after application
Procedure, shortened: as §4

[16] = system: velvetleaf; test: Test Example 5: herbicidal effect by foliage application, plastic box (Table 20, symbol M); format: in vivo, velvetleaf (Abutilon theophrasti); conditions: 320 g/ha; for M: velvetleaf, herbicidal effect grade: three weeks after application
Procedure, shortened: as §4

[17] = system: redroot pigweed; test: Test Example 5: herbicidal effect by foliage application, plastic box (Table 20, symbol N); format: in vivo, redroot pigweed (Amaranthus retroflexus); conditions: 320 g/ha; for N: redroot pigweed, herbicidal effect grade: three weeks after application
Procedure, shortened: as §4

[18] = foliage application after 14-day growth, evaluated three weeks after application
[19] = application during weed generation under submerged conditions, amount of applied herbicide 320 g/ha
[20] = foliage application, evaluated 3 weeks after application

CCCC(=O)Oc1c(C)nn(C)c(=O)c1-c1c(-c2ccc(OC(F)(F)F)cc2)sc2cc(F)ccc12 [3-144]
Herbicidal effect, A: late watergrass [1]: 5 (Herbicidal rate of 90% or more (almost completely withered))
Herbicidal effect, B: Japanese bulrush [2]: 3 (Herbicidal rate of 40% or more and less than 70%)
herbicidal effect rating, A: late watergrass [3]: 2 (Herbicidal rate of 20% or more and less than 40%)
herbicidal effect rating, B: Japanese bulrush [4]: 3 (Herbicidal rate of 40% or more and less than 70%)
herbicidal effect on barnyard grass (H) [5]: 5 (Herbicidal rate of 90% or more (almost completely withered))
Herbicidal effect by soil treatment, G: green foxtail [6]: 0 (Herbicidal rate of 5% or less (almost no effect))
Herbicidal effect by soil treatment, H: barnyard grass [7]: 3 (Herbicidal rate of 40% or more and less than 70%)
Herbicidal effect by soil treatment, I: wild oat [8]: 0 (Herbicidal rate of 5% or less (almost no effect))
Herbicidal effect by soil treatment, J: blackgrass [9]: 0 (Herbicidal rate of 5% or less (almost no effect))
Herbicidal effect by soil treatment, K: Italian ryegrass [10]: 0 (Herbicidal rate of 5% or less (almost no effect))
Herbicidal effect by soil treatment, P: chickweed [11]: 0 (Herbicidal rate of 5% or less (almost no effect))
Herbicidal effect by soil treatment, R: persian speedwell [12]: 0 (Herbicidal rate of 5% or less (almost no effect))
herbicidal effect on I: wild oat (evaluation grade 0-5) [13, 18]: 0 (Herbicidal rate of 5% or less (almost no effect))
herbicidal effect on J: blackgrass (evaluation grade 0-5) [14, 18]: 0 (Herbicidal rate of 5% or less (almost no effect))
herbicidal effect on K: Italian ryegrass (evaluation grade 0-5) [15, 18]: 0 (Herbicidal rate of 5% or less (almost no effect))
herbicidal effect on M: velvetleaf (evaluation grade 0-5) [16, 18]: 4 (Herbicidal rate of 70% or more and less than 90%)
herbicidal effect on N: redroot pigweed (evaluation grade 0-5) [17, 18]: 5 (Herbicidal rate of 90% or more (almost completely withered))

CCCC(=O)Oc1c(C)nn(C)c(=O)c1-c1c(-c2ccc(C(F)(F)F)cc2)sc2cc(F)ccc12 [3-140]
Herbicidal effect, A: late watergrass [1]: 5 (Herbicidal rate of 90% or more (almost completely withered))
Herbicidal effect, B: Japanese bulrush [2]: 3 (Herbicidal rate of 40% or more and less than 70%)
herbicidal effect rating, A: late watergrass [3]: 3 (Herbicidal rate of 40% or more and less than 70%)
herbicidal effect rating, B: Japanese bulrush [4]: 3 (Herbicidal rate of 40% or more and less than 70%)
herbicidal effect on barnyard grass (H) [5]: 5 (Herbicidal rate of 90% or more (almost completely withered))
Herbicidal effect by soil treatment, G: green foxtail [6]: 0 (Herbicidal rate of 5% or less (almost no effect))
Herbicidal effect by soil treatment, H: barnyard grass [7]: 0 (Herbicidal rate of 5% or less (almost no effect))
Herbicidal effect by soil treatment, I: wild oat [8]: 0 (Herbicidal rate of 5% or less (almost no effect))
Herbicidal effect by soil treatment, J: blackgrass [9]: 0 (Herbicidal rate of 5% or less (almost no effect))
Herbicidal effect by soil treatment, K: Italian ryegrass [10]: 0 (Herbicidal rate of 5% or less (almost no effect))
Herbicidal effect by soil treatment, P: chickweed [11]: 0 (Herbicidal rate of 5% or less (almost no effect))
Herbicidal effect by soil treatment, R: persian speedwell [12]: 0 (Herbicidal rate of 5% or less (almost no effect))
I: wild oat, herbicidal effect grade ([13]; foliage application): 2 (Herbicidal rate of 20% or more and less than 40%)
J: blackgrass, herbicidal effect grade ([14]; foliage application): 0 (Herbicidal rate of 5% or less (almost no effect))
K: Italian ryegrass, herbicidal effect grade ([15]; foliage application): 0 (Herbicidal rate of 5% or less (almost no effect))
M: velvetleaf, herbicidal effect grade ([16]; foliage application): 5 (Herbicidal rate of 90% or more (almost completely withered))
N: redroot pigweed, herbicidal effect grade ([17]; foliage application): 5 (Herbicidal rate of 90% or more (almost completely withered))

CCOc1ccccc1-c1sc2cc(OC)ccc2c1-c1c(O)c(C)nn(CC)c1=O [3-085]
Herbicidal effect, A: late watergrass [1]: 5 (Herbicidal rate of 90% or more (almost completely withered))
Herbicidal effect, B: Japanese bulrush [2]: 5 (Herbicidal rate of 90% or more (almost completely withered))
herbicidal effect rating, A: late watergrass [3]: 0 (Herbicidal rate of 5% or less (almost no effect))
herbicidal effect rating, B: Japanese bulrush [4]: 3 (Herbicidal rate of 40% or more and less than 70%)
herbicidal effect on barnyard grass (H) [5]: 5 (Herbicidal rate of 90% or more (almost completely withered))
G: green foxtail, herbicidal effect grade [6]: 3 (Herbicidal rate of 40% or more and less than 70%)
H: barnyard grass, herbicidal effect grade [7]: 3 (Herbicidal rate of 40% or more and less than 70%)
I: wild oat, herbicidal effect grade [8]: 0 (Herbicidal rate of 5% or less (almost no effect))
J: blackgrass, herbicidal effect grade [9]: 1 (Herbicidal rate of 5% or more and less than 20%)
K: Italian ryegrass, herbicidal effect grade [10]: 0 (Herbicidal rate of 5% or less (almost no effect))
P: chickweed, herbicidal effect grade [11]: 3 (Herbicidal rate of 40% or more and less than 70%)
R: persian speedwell, herbicidal effect grade [12]: 5 (Herbicidal rate of 90% or more (almost completely withered))
I: wild oat, herbicidal effect grade ([13]; foliage application): 4 (Herbicidal rate of 70% or more and less than 90%)
J: blackgrass, herbicidal effect grade ([14]; foliage application): 4 (Herbicidal rate of 70% or more and less than 90%)
K: Italian ryegrass, herbicidal effect grade ([15]; foliage application): 0 (Herbicidal rate of 5% or less (almost no effect))
M: velvetleaf, herbicidal effect grade ([16]; foliage application): 5 (Herbicidal rate of 90% or more (almost completely withered))
N: redroot pigweed, herbicidal effect grade ([17]; foliage application): 5 (Herbicidal rate of 90% or more (almost completely withered))

COCCOc1ccc(-c2oc3ccc(C)cc3c2-c2c(O)c(C)nn(C)c2=O)cc1 [9-063]
Herbicidal effect, A: late watergrass [1]: 5 (Herbicidal rate of 90% or more (almost completely withered))
Herbicidal effect, B: Japanese bulrush [2]: 5 (Herbicidal rate of 90% or more (almost completely withered))
herbicidal effect grade, A: late watergrass [3, 19]: 5 (Herbicidal rate of 90% or more (almost completely withered))
herbicidal effect grade, B: Japanese bulrush [4, 19]: 4 (Herbicidal rate of 70% or more and less than 90%)
Herbicidal effect on H (barnyard grass), foliage application ([5]; amount of applied herbicide 320 g/ha): 5 (Herbicidal rate of 90% or more (almost completely withered))
G: green foxtail, herbicidal effect grade [6]: 5 (Herbicidal rate of 90% or more (almost completely withered))
H: barnyard grass, herbicidal effect grade [7]: 5 (Herbicidal rate of 90% or more (almost completely withered))
I: wild oat, herbicidal effect grade [8]: 0 (Herbicidal rate of 5% or less (almost no effect))
J: blackgrass, herbicidal effect grade [9]: 5 (Herbicidal rate of 90% or more (almost completely withered))
K: Italian ryegrass, herbicidal effect grade [10]: 5 (Herbicidal rate of 90% or more (almost completely withered))
P: chickweed, herbicidal effect grade [11]: 4 (Herbicidal rate of 70% or more and less than 90%)
R: persian speedwell, herbicidal effect grade [12]: 5 (Herbicidal rate of 90% or more (almost completely withered))
I (wild oat) herbicidal effect grade [13, 20]: 1 (Herbicidal rate of 5% or more and less than 20%)
J (blackgrass) herbicidal effect grade [14, 20]: 5 (Herbicidal rate of 90% or more (almost completely withered))
K (Italian ryegrass) herbicidal effect grade [15, 20]: 5 (Herbicidal rate of 90% or more (almost completely withered))
M (velvetleaf) herbicidal effect grade [16, 20]: 5 (Herbicidal rate of 90% or more (almost completely withered))
N (redroot pigweed) herbicidal effect grade [17, 20]: 5 (Herbicidal rate of 90% or more (almost completely withered))
